These results are taken from US8957087B2, “Heterocyclic substituted acardite derivate and application thereof” (Jiangsu Provincial Institute of Materia Medica Co., Ltd., priority 2009, dated 2015).

The test system of data set [1] is human liver cancer cell bel-7402 transplantation tumor. Format: in vivo. The following applies: BALB/cA nude mice; 60 mg/kg, 6 times every week for 3 weeks; Sorafenib oral 60 mg/kg. A digest of the protocol:
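Female BALB/cA nude mice (35–40 days, 18–22 g) bearing Bel-7402 xenografts; 6 mice per treated group, 12 in saline controls. Compound dosed at 60 mg/kg, 6 times weekly for 3 weeks, followed by one week of observation; tumor inhibition rate scored against controls.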

The subject of the next data set is lung cancer cell A549. Nature of the data set: Effects on the adhesive ability of lung cancer cell A549. In kind it is cell-based, human. The following applies: Final concentration 1 x 1.0*10^(−5) mol/L. A digest of the protocol: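 A549 cells in 1640 medium with 10% FBS tested for adhesion to gelatin versus poly-lysine (PLL), with CCK8 used as read-out. Inhibition rate derived from the gelatin/PLL adhesion OD ratio of dosed cells relative to the undosed cell group.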

The subject of data set [2] is mice S180 sarcoma. The following applies: mouse, in vivo, 60 mg/kg.
The next data set relates to Raf-1(truncated). Nature of the data set: Raf-1 inhibitor screening by chemoluminescence method. In kind it is biochemical. The following applies: Final concentration 1 x 1.0*10^−5 mol/ml. The text has this: 1. Inhibitory activity of the compound of the present invention on raf kinase
Raf-1 inhibitor screening by chemoluminescence method
Westernblot electrophoresis apparatus Rotaryshaker
Raf-1(truncated), Magnesium/ATP Cocktail, MEK1 unactive

Data set [3] concerns renal carcinoma cell line GCR-1 transplanted tumor. Format: in vivo, BALB/cA nude mice. The following applies: BALB/cA nude mice; 60 mg/kg, 6 times every week for 3 weeks; Sorafenib oral 60 mg/kg. Summed up: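 Female BALB/cA nude mice (18–22 g) bearing GCR-1 renal carcinoma xenografts, 6 per treated group, 12 saline controls. Drug given at 60 mg/kg, 6 times weekly for 3 weeks, then one week of observation; tumor inhibition rate reported.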

In data set [4] the test system is human lung cancer cell strain A549. Nature of the data set: MTT assay, inhibition of growth of human lung cancer cell strain A549. In kind it is cell-based. The following applies: Final concentration 1 x 1.0*10^(−5) mol/L. A digest of the protocol: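 A549 cells grown in F12 with 10% FBS; growth read by MTT, inhibition rate from blank-corrected OD of drug wells versus control wells.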

For data set [5], the system named is human high-metastic lung cancer cell 95D. Nature of the data set: Inhibition of human high-metastic lung cancer cell 95D migration (Boyden Chamber Transwell). Format: cell-based. The following applies: Final concentration 1 x 1.0*10^(−5) mol/L. A digest of the protocol:
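Boyden Transwell migration (8 μm pores) of 95D cells, RPMI-1640 with 10% FBS versus serum-free medium; inhibition rate calculated.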

Data set [6] relates to human umbilical vein endothelial cell HUVEC. Nature of the data set: Growth of human umbilical vein endothelial cell HUVEC by CCK8 method. Format: cell-based. The following applies: Final concentration 1 x 1.0*10^(−5) mol/L. Summed up: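 HUVEC cells were grown in 1640 medium with 10% FBS, and growth was measured by the CCK8 method. OD values of drug and control wells were corrected by subtracting the blank-well OD.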

The subject of data set [7] is human lung cancer A549 transplantation tumor. Format: in vivo. The following applies: BALB/cA nude mice; 60 mg/kg, 6 times every week for 3 weeks; Sorafenib oral 60 mg/kg. A digest of the protocol: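 Female BALB/cA nude mice, 35-40 days old, bearing A549 human lung cancer transplants; 6 per treatment group, 12 saline controls. Compound given at 60 mg/kg, 6 times weekly for 3 weeks, then observed one week.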

Data set [8] relates to mice S180 sarcoma. Nature of the data set: Experimental therapeutic action on S180 sarcoma mice.
The test system of data set [9] is Human colon cancer HT-29 transplantable tumor. Nature of the data set: Human colon cancer HT-29 transplantable tumor in nude mice.
Description: Experimental therapeutic action of the compound in the present invention on Human colon cancer HT-29 transplantable tumor in nude mice.
Take eugenic tumor tissues and cut into about 1.5 mm^3, and then incoculate subcutaneously at the right armpit of nude mice under the sterile conditions. The diameter of the transplantable tumor in nude mice was determined with a vernier caliper, and the animals were divided into groups after the tumors were grown to 100-300 mm^3. Using the method of measuring the tumor diameter, dynamically observe the antitumor effects of tested materials. The diameter of the tumor was determined three times every week and the mouse weight was weighed at the same time. […] The solvent was intragastrically administrated as the control for continuous 9 times. Equal amount of control was administrated in the negative control group.
Tumor volume (TV) is calculated as: TV=½×a×b^2, wherein a and b respectively represent length and width.
Relative tumor volume (RTV) is calculated as: RTV=TVt/TV0, wherein TV0 is the tumor volume when administrated according to different cages and TVt is the tumor volume measured each time.
Relative tumor reproduction rate T/C (%) is calculated as follows:
TRTV: RTV in the treatment group; CRTV: RTV in the negative control group.
The test results used relative tumor reproduction rate T/C (%) as evaluating indicator of anti-tumor activity.
Data set [10] relates to human umbilical vein endothelial cell HUVEC. Nature of the data set: Lumen formation ability of HUVEC (Matrigel method). In kind it is cell-based. The following applies: Final concentration 1 x 1.0*10^(−5) mol/L. Summed up: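 HUVEC at passage 3–5, cultured in M199 at 37° C under 5% CO2, were plated on Matrigel with compound. Spontaneous lumen formation was scored as an inhibition rate.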

Marks after values point to notes of the source that are not given here.

With `CNC(=O)c1cc(Oc2ccc(NC(=O)Nc3ccc(Br)c(C(F)(F)F)c3)cc2)c2cc(OC)ccc2n1` [Compound 3], the “Relative tumor reproduction rate T/C (%) on human liver cancer cell bel-7402 transplantation tumor model in nude mice” value in [1] worked out at 30.1%. Besides, in the data set with lung cancer cell A549, the “Inhibition rate, adhesion ability of human lung cancer cell A549” value is reported as 79.66%. The “Weight (g) Start” value in the data set with mice S180 sarcoma [2] is reported as 18.0 ± 1.1 g. In the data set with Raf-1(truncated), the “Inhibition rate % on raf kinase” value was 56.3%. Also, in [3], the “Relative tumor reproduction rate T/C (%) on human renal carcinoma GCR-1 cell transplanted tumor model in nude mice” value is reported as 31.3%. Also, the “Inhibition rate, growth of human lung cancer cell A549” value in data set [4] is listed as 69.67%. The “Inhibition rate, 95D cell strain migration” value in data set [5] is on record as 96.64%. For the same compound, the “Inhibition rate, growth of HUVEC cell” value in data set [6] came out at 27.67%. For the same compound, the “Relative tumor reproduction rate T/C (%) on human lung cancer A549 transplantation tumor in nude mice” value in [7] is on record as 37.2%. Also, in the data set on mice S180 sarcoma [8] (60 mg/kg ig for 9 days, day 10), the “Tumor weight x ± SD” value is on record as 0.75 ± 0.36 g. For the same compound, the “Tumor growth inhibition rate (%)” value with mice S180 sarcoma [8] (mice S180 sarcoma, 60 mg/kg orally for 9 days) is given as 53.4%. For the same compound, in [9] (HT-29 in nude mice, 60 mg/kg ig 9 times, 60 mg/kg), the “Relative tumor reproduction rate T/C (%)” value was found to be 47.34%. For the same compound, the RTV in data set [9] (relative tumor volume, 60 mg/kg ig 9 times) was 2.40 ± 0.67. Besides, the “TV d0” value in data set [9] (tumor volume d0, 60 mg/kg) came out at 133 ± 18. In addition, the “TV d13” value in data set [9] (tumor volume d13, 60 mg/kg ig 9 times) was found to be 322 ± 129. Besides, the “Inhibition rate, lumen formation ability of HUVEC” value in data set [10] turned out to be 76.61%.
